From US8536354B2, “Steroidal ligands and their use in gene switch modulation” (Intrexon Corporation, priority 2008, dated 2013)
Read-outs that look alike come from different tables or passages of the source.

Assays:
[1] = molecular target: wild-type Aedes aegypti EcR (AaEcR; GAL4-EcR DEF with VP16-RXR-USP chimera) (Aedes aegypti, UniProt P49880); test: Two-hybrid gene switch assay, luciferase reporter, wild-type AaEcR, mouse NIH3T3 cells; assay type: cell-based
[2] = molecular target: T1, wild-type CfEcR (GAL4-CfEcR-DEF with VP16-RXR-USP chimera) (Choristoneura fumiferana, UniProt O77255); test: Two-hybrid gene switch assay, luciferase reporter, wild-type CfEcR, mouse NIH3T3 cells
T1 sequence (O77255 219-541): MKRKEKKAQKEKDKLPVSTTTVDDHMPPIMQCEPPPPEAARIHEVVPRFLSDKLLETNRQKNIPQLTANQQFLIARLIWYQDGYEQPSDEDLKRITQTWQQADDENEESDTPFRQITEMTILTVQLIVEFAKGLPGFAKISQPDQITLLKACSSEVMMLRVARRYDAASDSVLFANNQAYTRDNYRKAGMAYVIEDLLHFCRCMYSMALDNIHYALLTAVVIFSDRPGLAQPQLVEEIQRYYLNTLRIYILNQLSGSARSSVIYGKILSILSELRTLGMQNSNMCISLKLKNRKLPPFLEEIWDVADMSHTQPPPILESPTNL
T1 sequence (P28702 1-533 partner): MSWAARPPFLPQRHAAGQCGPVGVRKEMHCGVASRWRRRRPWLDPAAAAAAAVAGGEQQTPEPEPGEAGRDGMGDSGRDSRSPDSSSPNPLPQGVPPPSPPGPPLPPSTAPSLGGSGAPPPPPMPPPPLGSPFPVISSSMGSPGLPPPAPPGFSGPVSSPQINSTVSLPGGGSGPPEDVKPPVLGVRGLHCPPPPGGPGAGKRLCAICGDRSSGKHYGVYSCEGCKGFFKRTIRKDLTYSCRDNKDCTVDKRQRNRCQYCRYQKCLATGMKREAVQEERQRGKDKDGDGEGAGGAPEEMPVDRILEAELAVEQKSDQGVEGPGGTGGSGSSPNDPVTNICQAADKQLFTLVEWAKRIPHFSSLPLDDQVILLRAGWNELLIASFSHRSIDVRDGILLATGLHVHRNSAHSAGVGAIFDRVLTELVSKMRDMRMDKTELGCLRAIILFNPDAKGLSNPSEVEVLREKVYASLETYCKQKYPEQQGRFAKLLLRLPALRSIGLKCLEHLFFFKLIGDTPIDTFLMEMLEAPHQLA

[3] = molecular target: T2, TmEcR (GAL4-EcR DEF with VP16-RXR partner) (Tenebrio molitor, UniProt O02035); test: Two-hybrid gene switch assay, luciferase reporter, TmEcR, mouse NIH3T3 cells
T2 sequence (O02035 194-491): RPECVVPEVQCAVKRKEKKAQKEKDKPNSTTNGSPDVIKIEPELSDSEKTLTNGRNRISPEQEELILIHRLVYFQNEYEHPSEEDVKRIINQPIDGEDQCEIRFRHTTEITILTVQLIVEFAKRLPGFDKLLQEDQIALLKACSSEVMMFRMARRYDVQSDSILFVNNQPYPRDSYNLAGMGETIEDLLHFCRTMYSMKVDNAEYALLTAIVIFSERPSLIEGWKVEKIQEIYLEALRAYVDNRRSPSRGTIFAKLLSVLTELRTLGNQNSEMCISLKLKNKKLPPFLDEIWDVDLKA
T2 sequence (P28704 1-520 partner): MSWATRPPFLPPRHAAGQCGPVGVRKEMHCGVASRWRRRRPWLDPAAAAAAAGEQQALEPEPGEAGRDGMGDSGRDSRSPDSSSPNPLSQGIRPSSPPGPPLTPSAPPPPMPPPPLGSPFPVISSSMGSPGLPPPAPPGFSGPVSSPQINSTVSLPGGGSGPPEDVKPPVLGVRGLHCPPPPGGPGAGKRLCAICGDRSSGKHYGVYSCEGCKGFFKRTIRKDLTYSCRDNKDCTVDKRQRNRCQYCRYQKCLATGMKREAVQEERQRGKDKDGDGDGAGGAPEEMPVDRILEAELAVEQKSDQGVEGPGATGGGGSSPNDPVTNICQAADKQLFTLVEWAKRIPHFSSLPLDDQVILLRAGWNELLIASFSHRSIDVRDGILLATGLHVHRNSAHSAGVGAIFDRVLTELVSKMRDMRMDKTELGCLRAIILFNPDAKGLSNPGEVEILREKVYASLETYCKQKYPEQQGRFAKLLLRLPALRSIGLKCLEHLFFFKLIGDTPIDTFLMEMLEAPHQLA

[4] = FIG. 14A/14B, GAL4-EcR(DEF) with VP16-RXR-USP chimera, read-out: EC50
[5] = EC50, FIG. 14A/14B, GAL4-EcR(DEF)
[6] = EC50, FIG. 14A/14B, GAL4-EcR(DEF) with VP16-RXR-USP chimera
[7] = EC50, FIG. 16, GAL4-EcR (DEF) / VP16-RXR-USP chimera

Sequence of wild-type Aedes aegypti EcR (AaEcR; GAL4-EcR DEF with VP16-RXR-USP chimera) (P49880 with tags, fused parts or gaps limits assumed, change not shown): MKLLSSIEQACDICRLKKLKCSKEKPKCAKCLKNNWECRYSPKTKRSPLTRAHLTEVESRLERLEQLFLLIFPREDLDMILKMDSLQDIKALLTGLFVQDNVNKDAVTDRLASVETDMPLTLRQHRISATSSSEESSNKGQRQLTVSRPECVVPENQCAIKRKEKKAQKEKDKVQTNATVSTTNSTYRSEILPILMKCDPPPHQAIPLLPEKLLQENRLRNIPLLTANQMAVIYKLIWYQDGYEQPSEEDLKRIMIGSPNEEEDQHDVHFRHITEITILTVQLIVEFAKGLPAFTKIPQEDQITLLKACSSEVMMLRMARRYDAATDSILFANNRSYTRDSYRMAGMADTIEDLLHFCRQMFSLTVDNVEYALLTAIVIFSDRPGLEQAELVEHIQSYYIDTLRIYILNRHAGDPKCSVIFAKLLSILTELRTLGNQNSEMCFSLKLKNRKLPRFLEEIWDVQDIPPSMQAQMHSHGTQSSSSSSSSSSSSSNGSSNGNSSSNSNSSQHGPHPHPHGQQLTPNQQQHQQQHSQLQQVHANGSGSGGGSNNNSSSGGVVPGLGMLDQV

| Structure (SMILES) | EC50 [1, 4] [µM] | EC50 [2] [µM] | EC50 [3, 5] [µM] | EC50 [1, 6] [µM] | EC50 [1, 7] [µM] | EC50 ([2]; FIG. 15, CfEcR, GAL4-EcR (DEF) / VP16-RXR-USP chimera) [µM] | EC50 ([3]; EC50, FIG. 16, GAL4-EcR (DEF)) [µM] |
| --- | --- | --- | --- | --- | --- | --- | --- |
| CC(C)(O)CC[C@@H](OC(=O)c1ccc[nH]1)[C@](C)(O)[C@H]1CC[C@@]2(O)C3=CC(=O)[C@@H]4C[C@@H](O)[C@@H](O)C[C@]4(C)[C@H]3CC[C@]12C | ~10 | > 33 | ~20 |  |  |  |  |
| CC(=O)OCC(=O)O[C@H](CCC(C)(C)O)[C@](C)(O)[C@H]1CC[C@@]2(O)C3=CC(=O)[C@@H]4C[C@@H](O)[C@@H](O)C[C@]4(C)[C@H]3CC[C@]12C [20-hydroxyecdysone 22-acetoxyacetate] | ~3.3 | > 33 | ~10 |  |  |  |  |
| CC(C)(O)CC[C@@H](O)[C@](C)(O)[C@H]1CC[C@@]2(O)C3=CC(=O)[C@@H]4C[C@H]5OC(C)(C)O[C@H]5C[C@]4(C)[C@H]3CC[C@]12C [20-hydroxyecdysone-2,3-acetonide] | ~15 | > 33 | ~10 |  |  |  |  |
| C[C@@H](CO)CC[C@@H](O)[C@](C)(O)[C@H]1CC[C@@]2(O)C3=CC(=O)[C@@H]4C[C@@H](O)[C@@H](O)C[C@]4(C)[C@H]3CC[C@]12C [(25R)-inokosterone] | ~2.5 | > 33 | ~20 |  |  |  |  |
| C[C@H](CO)CC[C@@H](O)[C@](C)(O)[C@H]1CC[C@@]2(O)C3=CC(=O)[C@@H]4C[C@@H](O)[C@@H](O)C[C@]4(C)[C@H]3CC[C@]12C [(25S)-inokosterone] | ~4 | > 33 | ~10 |  |  |  |  |
| CC(C(O)CCC(C)(C)O)C1CCC2(O)C3=CC(=O)C4CC(O)CCC4(C)C3CCC12C (centres unmarked) [Compound 2-deoxyecdysone] | ~10 | > 33 | > 33 |  |  |  |  |
| CC(C)(O)CC[C@@H](O)[C@](C)(O)[C@H]1CC[C@@]2(O)C3=C[C@H](O)[C@@H]4C[C@@H](O)[C@@H](O)C[C@]4(C)[C@H]3CC[C@]12C [Compound 6a-hydroxy-20-hydroxyecdysone] | ~12 | > 33 | > 33 |  |  |  |  |
| CC(C)(O)CC[C@@H](O)[C@](C)(O)[C@H]1CC[C@@]2(O)C3=C[C@@H](O)[C@@H]4C[C@@H](O)[C@@H](O)C[C@]4(C)[C@H]3CC[C@]12C [Compound 6b-hydroxy-20-hydroxyecdysone] | ~6 | > 33 | ~20 |  |  |  |  |
| CC(=O)O[C@H](CCC(C)(C)O)[C@](C)(O)[C@H]1CC[C@@]2(O)C3=CC(=O)[C@@H]4C[C@@H](O)[C@@H](O)C[C@]4(C)[C@H]3CC[C@]12C [Compound 20-hydroxyecdysone-22-acetate] | ~2 | > 33 | ~2 |  |  |  |  |
| CC(C)(O)CCC(=O)[C@](C)(O)[C@H]1CC[C@@]2(O)C3=CC(=O)[C@@H]4C[C@@H](O)[C@@H](O)C[C@]4(C)[C@H]3CC[C@]12C [Compound 22-dehydro-20-hydroxyecdysone] | ~2 | > 33 | ~15 |  |  |  |  |
| CC(C)(O)CC[C@@H](O)[C@](C)(O)[C@H]1CC[C@@]2(O)C3=CC(=O)[C@@H]4C[C@@H](O)[C@@H](O)C[C@]4(C)C3=CC[C@]12C [Compound 25-hydroxydacryhainansterone] | ~5 | > 33 | ~20 |  |  |  |  |
| CC(C)CC[C@@H](O)[C@](C)(O)[C@H]1CC[C@@]2(O)C3=CC(=O)[C@@H]4C[C@@H](O)[C@@H](O)C[C@]4(C)[C@H]3[C@H](O)C[C@]12C [ajugasterone C] |  | ~20 | 9.51 | 0.07 |  |  |  |
| CC(C)(O)C(CCC(C)(O)C1CCC2(O)C3=CC(=O)C4CC(O)C(O)CC4(C)C3CCC12C)OC(=O)c1ccc[nH]1 (centres unmarked) [canescensterone] | ~0.2 | > 10 | ~0.33 |  |  |  |  |
| CC1(C)OC(=O)C=C1CC(O)C(C)(O)C1CCC2(O)C3=CC(=O)C4CC(O)C(O)CC4(C)C3CCC12C (centres unmarked) [carthamosterone] | ~15 | > 33 | > 33 |  |  |  |  |
| C[C@@H]1C(=O)O[C@H](C)[C@H]1C[C@@H](O)[C@](C)(O)[C@H]1CC[C@@]2(O)C3=CC(=O)[C@@H]4C[C@@H](O)[C@@H](O)C[C@]4(C)[C@H]3CC[C@]12C [cyasterone] | 3 | ~1 | > 33 |  |  |  |  |
| C[C@H]([C@H](O)CCC(C)(C)O)[C@H]1CC[C@@]2(O)C3=CC(=O)[C@@H]4C[C@@H](O)[C@@H](O)C[C@]4(C)[C@H]3CC[C@]12C [ecdysone] |  | > 33 | > 33 | ~15 | 3.43 | > 33 | > 33 |
| CC(C)(O)CC[C@@H](O)[C@](C)(O)[C@H]1CC[C@@]2(O)C3=CC(=O)[C@@H]4C[C@@H](O)[C@@H](O)[C@@H](O)[C@]4(C)[C@H]3CC[C@]12C [integristerone A] | ~10 | > 33 | ~8 |  |  |  |  |
| CC(CC(O)C(C)(O)C1CCC2(O)C3=CC(=O)C4CC(O)C(O)CC4(C)C3CCC12C)C(C)(C)O (centres unmarked) [makisterone A] | 3.33 | > 33 | ~20 |  |  |  |  |
| CCC(CC(O)C(C)(O)C1CCC2(O)C3=CC(=O)C4CC(O)C(O)CC4(C)C3CCC12C)C(C)(C)O (centres unmarked) [makisterone C] | 1.02 | > 33 | ~4 |  |  |  |  |
| CC(C)(O)CC[C@@H](O)[C@](C)(O)[C@H]1CC[C@@]2(O)C3=CC(=O)[C@]4(O)C[C@@H](O)[C@@H](O)C[C@]4(C)[C@H]3CC[C@]12C [polypodine B] |  | ~20 | ~10 | 0.173 | 0.05 |  | ~3 |
| CC(C)=CC[C@@H](O)[C@](C)(O)[C@H]1CC[C@@]2(O)C3=CC(=O)[C@@H]4C[C@@H](O)[C@@H](O)C[C@]4(C)[C@H]3CC[C@]12C [stachysterone C] |  | ~10 | 1.47 | 0.044 |  |  |  |
| CCCCCC(=O)OC1CC2(C)C(C(C)(O)C(O)CCC(C)(C)O)CCC2(O)C2=CC(=O)C3CC(O)C(O)CC3(C)C21 (centres unmarked) [turkesterone-11 a -hexanoate] |  | > 33 | > 33 | ~12 |  |  |  |
| CCC(=O)OC1CC2(C)C(C(C)(O)C(O)CCC(C)(C)O)CCC2(O)C2=CC(=O)C3CC(O)C(O)CC3(C)C21 (centres unmarked) [turkesterone-11 a -propionate] |  | > 33 | > 33 | ~15 |  |  |  |
| CCCCCCCCCC(=O)OC1CC2(C)C(C(C)(O)C(O)CCC(C)(C)O)CCC2(O)C2=CC(=O)C3CC(O)C(O)CC3(C)C21 (centres unmarked) [turkesterone-11a-decanoate] |  | > 33 | > 33 | > 33 |  |  |  |
| CC(C)(O)CC[C@@H](O)[C@](C)(O)[C@H]1CC[C@@]2(O)C3=CC(=O)[C@@H]4C[C@@H](O)[C@@H](O)C[C@]4(C)[C@H]3[C@H](O)C[C@]12C [turkesterone] |  | > 33 | > 33 | 3.37 |  |  |  |
